Calls of active or inactive are those of the source. No cut-off for these calls is given here.
Columns and labels:
[1] = target: Serine/threonine-protein kinase B-raf (Homo sapiens, UniProt P15056, V600E); assay: Inhibition of B-RAF V600E mutant (unknown origin) incubated for 1 hr in presence of ATP by envision multilabel reader analysis
LIM domain kinase 1 [2] = target: T1, LIM domain kinase 1 (Homo sapiens, UniProt P53667); assay: Inhibition of full length human LIMK1 by KINOMEscan assay
Target sequence in this assay (P53667 whole entry, the tested form may be a part): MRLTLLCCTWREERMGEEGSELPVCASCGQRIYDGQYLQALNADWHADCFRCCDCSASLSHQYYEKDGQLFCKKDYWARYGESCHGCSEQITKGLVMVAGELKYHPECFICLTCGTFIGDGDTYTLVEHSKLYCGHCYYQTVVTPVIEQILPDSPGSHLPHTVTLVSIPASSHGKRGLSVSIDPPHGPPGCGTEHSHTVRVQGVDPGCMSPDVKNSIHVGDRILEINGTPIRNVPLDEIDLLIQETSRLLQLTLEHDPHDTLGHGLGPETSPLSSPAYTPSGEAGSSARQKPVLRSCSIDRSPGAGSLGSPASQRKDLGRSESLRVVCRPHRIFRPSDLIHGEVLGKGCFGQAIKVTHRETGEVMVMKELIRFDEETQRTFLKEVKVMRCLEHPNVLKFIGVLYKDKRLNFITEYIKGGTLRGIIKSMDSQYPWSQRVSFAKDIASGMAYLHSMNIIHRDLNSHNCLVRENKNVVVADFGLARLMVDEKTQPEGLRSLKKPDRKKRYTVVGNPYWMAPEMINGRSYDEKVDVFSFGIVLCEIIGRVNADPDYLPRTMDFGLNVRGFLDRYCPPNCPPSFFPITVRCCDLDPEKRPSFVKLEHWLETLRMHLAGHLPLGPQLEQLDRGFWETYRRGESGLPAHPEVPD

[3] = target: T2, Mitogen-activated protein kinase kinase kinase 20 (Homo sapiens, UniProt Q9NYL2); assay: Inhibition of partial length human ZAK at 1000 nM by KINOMEscan assay relative to control; values are per cent of control
Target sequence in this assay (Q9NYL2 2-800 limits assumed): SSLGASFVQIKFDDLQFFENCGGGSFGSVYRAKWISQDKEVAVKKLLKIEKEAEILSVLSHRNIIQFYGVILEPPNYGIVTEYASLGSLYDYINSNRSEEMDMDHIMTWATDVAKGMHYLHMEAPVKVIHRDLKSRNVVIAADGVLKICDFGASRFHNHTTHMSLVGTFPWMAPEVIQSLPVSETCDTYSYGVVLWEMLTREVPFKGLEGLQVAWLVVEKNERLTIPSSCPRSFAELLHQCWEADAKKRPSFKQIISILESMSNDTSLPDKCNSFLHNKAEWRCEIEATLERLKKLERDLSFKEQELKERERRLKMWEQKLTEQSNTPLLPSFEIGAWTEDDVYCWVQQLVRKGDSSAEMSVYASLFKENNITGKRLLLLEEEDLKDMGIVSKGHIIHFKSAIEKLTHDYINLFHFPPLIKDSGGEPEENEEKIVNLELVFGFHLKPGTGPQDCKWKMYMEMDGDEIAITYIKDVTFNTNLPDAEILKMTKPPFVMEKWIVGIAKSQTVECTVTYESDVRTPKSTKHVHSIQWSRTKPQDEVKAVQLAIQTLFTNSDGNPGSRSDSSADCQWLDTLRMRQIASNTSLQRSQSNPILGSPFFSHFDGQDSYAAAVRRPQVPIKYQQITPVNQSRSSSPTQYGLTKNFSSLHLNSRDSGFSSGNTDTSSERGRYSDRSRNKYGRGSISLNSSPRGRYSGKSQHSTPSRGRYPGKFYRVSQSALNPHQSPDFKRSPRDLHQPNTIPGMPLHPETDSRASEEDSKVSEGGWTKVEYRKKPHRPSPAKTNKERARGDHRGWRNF

U2OS [4] = assay: Induction of apoptosis in ZAK knockout human U2OS cells assessed as reduction in cell death at 10 uM measured after 24 hrs in presence of doxorubicin; format: functional, cell-based
[5] = target: T3, Tyrosine-protein kinase Lck (Homo sapiens, UniProt P06239); assay: Inhibition of partial length human LCK by KINOMEscan assay
Target sequence in this assay (P06239 whole entry): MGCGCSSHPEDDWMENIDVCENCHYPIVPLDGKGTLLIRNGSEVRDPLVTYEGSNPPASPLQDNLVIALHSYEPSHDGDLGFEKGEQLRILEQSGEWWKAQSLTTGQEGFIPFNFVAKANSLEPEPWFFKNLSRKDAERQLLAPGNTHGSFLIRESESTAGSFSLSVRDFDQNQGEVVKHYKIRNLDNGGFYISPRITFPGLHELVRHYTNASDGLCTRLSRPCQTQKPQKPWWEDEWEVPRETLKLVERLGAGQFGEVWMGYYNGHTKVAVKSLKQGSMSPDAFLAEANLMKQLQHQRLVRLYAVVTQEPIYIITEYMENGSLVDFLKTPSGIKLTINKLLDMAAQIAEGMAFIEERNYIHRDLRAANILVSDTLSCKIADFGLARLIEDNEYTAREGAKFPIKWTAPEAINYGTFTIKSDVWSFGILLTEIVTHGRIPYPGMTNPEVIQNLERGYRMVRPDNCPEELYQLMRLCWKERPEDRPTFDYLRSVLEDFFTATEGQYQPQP

[6] = target: T3, Tyrosine-protein kinase Lck; assay: Inhibition of partial length human LCK at 1000 nM by KINOMEscan assay relative to control; values are per cent of control
Target sequence in this assay (P06239 2-509 limits assumed): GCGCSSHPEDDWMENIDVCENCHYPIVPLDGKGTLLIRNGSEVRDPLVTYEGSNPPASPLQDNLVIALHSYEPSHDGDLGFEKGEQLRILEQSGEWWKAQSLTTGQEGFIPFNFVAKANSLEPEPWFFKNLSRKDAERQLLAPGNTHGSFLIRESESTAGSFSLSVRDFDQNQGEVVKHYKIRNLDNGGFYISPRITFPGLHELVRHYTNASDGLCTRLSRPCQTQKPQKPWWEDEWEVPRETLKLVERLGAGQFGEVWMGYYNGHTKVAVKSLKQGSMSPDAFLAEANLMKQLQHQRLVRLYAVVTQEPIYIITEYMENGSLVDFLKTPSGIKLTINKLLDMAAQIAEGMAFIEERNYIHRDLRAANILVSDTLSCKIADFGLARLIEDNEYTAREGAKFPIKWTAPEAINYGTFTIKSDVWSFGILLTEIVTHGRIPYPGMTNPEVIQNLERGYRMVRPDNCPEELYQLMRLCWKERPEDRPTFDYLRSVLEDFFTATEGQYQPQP

LIM domain kinase 2 [7] = target: T4, LIM domain kinase 2 (Homo sapiens, UniProt P53671); assay: Inhibition of full length human LIMK2 at 1000 nM by KINOMEscan assay relative to control; values are per cent of control
Target sequence in this assay (P53671 whole entry, looked up, the tested form may be a part): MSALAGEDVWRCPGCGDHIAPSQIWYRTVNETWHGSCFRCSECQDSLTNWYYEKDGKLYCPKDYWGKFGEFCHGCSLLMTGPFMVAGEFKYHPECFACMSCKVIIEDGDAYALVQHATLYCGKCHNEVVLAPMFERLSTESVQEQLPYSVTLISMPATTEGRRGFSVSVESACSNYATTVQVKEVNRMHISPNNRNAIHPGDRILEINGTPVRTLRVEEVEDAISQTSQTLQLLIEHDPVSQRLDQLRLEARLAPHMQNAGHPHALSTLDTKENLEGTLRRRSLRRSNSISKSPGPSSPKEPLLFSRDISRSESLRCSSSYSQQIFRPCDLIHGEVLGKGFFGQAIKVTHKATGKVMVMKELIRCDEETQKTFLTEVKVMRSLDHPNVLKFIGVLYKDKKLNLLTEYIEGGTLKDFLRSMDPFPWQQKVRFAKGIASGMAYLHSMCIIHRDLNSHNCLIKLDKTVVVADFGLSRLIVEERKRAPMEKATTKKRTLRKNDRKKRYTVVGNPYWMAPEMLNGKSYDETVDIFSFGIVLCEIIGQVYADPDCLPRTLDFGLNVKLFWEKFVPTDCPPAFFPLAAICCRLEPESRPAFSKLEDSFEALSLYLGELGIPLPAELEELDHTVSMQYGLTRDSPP

[8] = target: T2, Mitogen-activated protein kinase kinase kinase 20; assay: Inhibition of recombinant ZAK (unknown origin) using ATP as substrate preincubated for 60 mins followed by substrate addition and measured after 40 mins by fluorescence based envision multilabel reader method
Target sequence in this assay (Q9NYL2 whole entry): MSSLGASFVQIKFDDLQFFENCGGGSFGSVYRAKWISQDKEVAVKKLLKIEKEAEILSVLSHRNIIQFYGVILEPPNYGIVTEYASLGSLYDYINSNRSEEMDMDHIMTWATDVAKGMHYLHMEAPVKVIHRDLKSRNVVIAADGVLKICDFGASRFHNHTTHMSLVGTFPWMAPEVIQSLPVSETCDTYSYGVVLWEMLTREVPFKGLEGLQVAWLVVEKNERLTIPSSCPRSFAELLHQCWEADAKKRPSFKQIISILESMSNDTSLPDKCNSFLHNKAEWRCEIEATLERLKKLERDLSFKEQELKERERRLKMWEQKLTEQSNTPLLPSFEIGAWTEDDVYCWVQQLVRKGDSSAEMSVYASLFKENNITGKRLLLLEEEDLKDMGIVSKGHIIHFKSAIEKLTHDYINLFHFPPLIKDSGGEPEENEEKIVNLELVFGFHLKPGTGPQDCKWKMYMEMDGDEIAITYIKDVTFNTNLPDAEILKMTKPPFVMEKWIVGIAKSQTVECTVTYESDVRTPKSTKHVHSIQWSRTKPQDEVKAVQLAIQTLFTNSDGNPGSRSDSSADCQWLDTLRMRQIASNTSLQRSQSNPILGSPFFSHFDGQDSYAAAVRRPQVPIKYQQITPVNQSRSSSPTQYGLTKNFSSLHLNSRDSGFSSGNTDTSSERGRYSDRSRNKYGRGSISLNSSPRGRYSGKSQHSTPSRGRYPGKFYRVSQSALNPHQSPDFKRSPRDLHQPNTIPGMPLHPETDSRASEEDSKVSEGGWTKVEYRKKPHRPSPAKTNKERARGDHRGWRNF

U2OS [9] = assay: Induction of apoptosis in ZAK knockout human U2OS cells assessed as increase in cleaved-caspase 3 level at 10 uM measured for 4 hrs; format: functional, cell-based
U2OS [10] = assay: Induction of apoptosis in human U2OS cells assessed as reduction in cell death at 10 uM measured after 24 hrs in presence of doxorubicin; format: functional, cell-based
[11] = target: MAP kinase p38 (Homo sapiens) (UniProt O15264+Q15759+Q16539+P53778); assay: Inhibition of p38 phosphorylation in human U2OS cells measured for 1 hr by Western blot analysis; format: cell-based; conditions: dose <= 10.0 µM
[12] = target: T2, Mitogen-activated protein kinase kinase kinase 20; assay: Inhibition of ZAKbeta (unknown origin) at 10 uM measured after 1 hr by Western blot analysis
Target sequence in this assay (Q9NYL2 2-800 limits assumed): as the sequence (Q9NYL2 2-800 limits assumed) above

[13] = target: T2, Mitogen-activated protein kinase kinase kinase 20; assay: Inhibition of ZAKapha (unknown origin) at 10 uM measured after 1 hr by Western blot analysis
Target sequence in this assay (Q9NYL2 2-800 limits assumed): as above

LIM domain kinase 2 [14] = target: T4, LIM domain kinase 2; assay: Inhibition of full length human LIMK2 by KINOMEscan assay
Target sequence in this assay (P53671 whole entry, the tested form may be a part): as the sequence (P53671 whole entry, looked up, the tested form may be a part) above

LIM domain kinase 1 [15] = target: T1, LIM domain kinase 1; assay: Inhibition of full length human LIMK1 at 1000 nM by KINOMEscan assay relative to control; values are per cent of control
Target sequence in this assay (P53667 whole entry, looked up, the tested form may be a part): as the sequence (P53667 whole entry, the tested form may be a part) above

[16] = target: T2, Mitogen-activated protein kinase kinase kinase 20; assay: Inhibition of partial length human ZAK by KINOMEscan assay
Target sequence in this assay (Q9NYL2 whole entry): as the sequence (Q9NYL2 whole entry) above

U2OS [17] = assay: Induction of apoptosis in human U2OS cells assessed as increase in cleaved-caspase 3 level at 100 uM measured for 4 hrs; format: functional, cell-based

Serine/threonine-protein kinase B-raf, sequence (P15056 2-766 V600E limits assumed): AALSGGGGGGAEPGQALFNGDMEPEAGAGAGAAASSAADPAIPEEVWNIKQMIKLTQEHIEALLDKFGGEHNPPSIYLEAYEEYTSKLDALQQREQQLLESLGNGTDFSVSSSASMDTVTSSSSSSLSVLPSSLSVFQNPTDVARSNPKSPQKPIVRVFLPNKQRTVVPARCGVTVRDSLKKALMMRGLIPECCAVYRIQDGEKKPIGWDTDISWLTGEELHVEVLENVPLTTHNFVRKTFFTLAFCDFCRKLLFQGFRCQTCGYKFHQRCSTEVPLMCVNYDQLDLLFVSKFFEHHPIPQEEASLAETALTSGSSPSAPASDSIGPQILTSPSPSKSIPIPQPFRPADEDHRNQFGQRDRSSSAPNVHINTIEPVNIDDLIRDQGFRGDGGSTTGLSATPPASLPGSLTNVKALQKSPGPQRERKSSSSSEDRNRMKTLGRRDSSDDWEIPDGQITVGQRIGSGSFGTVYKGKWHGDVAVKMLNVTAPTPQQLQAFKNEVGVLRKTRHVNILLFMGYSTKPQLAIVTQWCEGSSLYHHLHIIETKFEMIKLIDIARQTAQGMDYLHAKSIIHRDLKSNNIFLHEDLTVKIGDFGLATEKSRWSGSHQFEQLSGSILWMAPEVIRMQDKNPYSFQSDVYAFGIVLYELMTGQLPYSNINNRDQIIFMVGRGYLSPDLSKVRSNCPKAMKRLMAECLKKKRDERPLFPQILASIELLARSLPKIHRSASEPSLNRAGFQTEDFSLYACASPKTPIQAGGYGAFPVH

C=CC(=O)N1CCC(Oc2n[nH]c3ncc(-c4cn(-c5c(F)ccc(NS(=O)(=O)c6cccc(-c7ccccc7)c6)c5F)nn4)cc23)C1 (configuration not stated)
IC50 [1]: > 1 µM | IC50 (LIM domain kinase 1 [2]): 0.0123 µM | residual activity [3]: -4% | Activity (U2OS [4]): inactive | IC50 [5]: 0.204 µM | residual activity [6]: 8% | residual activity (LIM domain kinase 2 [7]): 6% | IC50 [8]: 0.0115 µM | Activity (U2OS [9]): inactive | Activity (U2OS [10]): Active | inhibition [11]: Dose-Dependent Effect | inhibition [12]: Active | inhibition [13]: Active | IC50 (LIM domain kinase 2 [14]): 0.0213 µM | residual activity (LIM domain kinase 1 [15]): 9% | IC50 [16]: 0.0115 µM

C=CC(=O)N1CC[C@@H](Oc2n[nH]c3ncc(-c4cn(-c5c(F)ccc(NS(=O)(=O)c6cccc(-c7ccccc7)c6)c5F)nn4)cc23)C1
IC50 [8]: 0.0123 µM

COc1ccc(C[C@H]2NC[C@H](O)[C@H]2OC(C)=O)cc1
inhibition [11]: Dose-Dependent Effect

C=CC(=O)N1CC[C@H](Oc2n[nH]c3ncc(-c4cn(-c5c(F)ccc(NS(=O)(=O)c6cccc(-c7ccccc7)c6)c5F)nn4)cc23)C1
IC50 [8]: 0.0099 µM

C=CC(=O)NCCCOc1n[nH]c2ncc(-c3cn(-c4c(F)ccc(NS(=O)(=O)c5cccc(-c6ccccc6)c5)c4F)nn3)cc12
IC50 [8]: 0.0091 µM

COc1cccc2c1C(=O)c1c(O)c3c(c(O)c1C2=O)C[C@@](O)(C(=O)CO)C[C@@H]3O[C@H]1C[C@H](N)[C@H](O)[C@H](C)O1
Activity (U2OS [17]): Active

C=CC(=O)NCCCCCCN1CCC(COc2n[nH]c3ncc(-c4cn(-c5c(F)ccc(NS(=O)(=O)c6cccc(-c7ccccc7)c6)c5F)nn4)cc23)CC1
IC50 [8]: 0.0101 µM

C=CC(=O)N1CCC(Oc2n[nH]c3ncc(-c4cn(-c5c(F)ccc(NS(=O)(=O)c6ccccc6)c5F)nn4)cc23)C1 (configuration not stated)
IC50 [1]: 0.247 µM | IC50 [8]: 0.0101 µM

COc1n[nH]c2ncc(-c3cn(-c4c(F)ccc(NS(=O)(=O)c5cccc(-c6ccccc6)c5)c4F)nn3)cc12
IC50 [1]: > 1 µM | IC50 [8]: 0.0088 µM

C=CC(=O)N1CCCC(NC(=O)CCCCCCOc2n[nH]c3ncc(-c4cn(-c5c(F)ccc(NS(=O)(=O)c6cccc(-c7ccccc7)c6)c5F)nn4)cc23)C1 (configuration not stated)
IC50 [8]: 0.0347 µM
